Source: a melting point compilation (Tetko et al.; mined from patent text by program, amines drawn as free bases though some values may be those of a salt)

Row | SMILES | melting point
1 | CCn1c(=O)n(Cc2ccccc2)c(=O)c2c(Cl)cc(Cl)cc21 | 78 to 82 °C
2 | O=[N+]([O-])c1cc(F)ccc1OCCCCl | 143 °C
3 | O=C(CCCl)c1ccc2c3c1CCCC3C(=O)N2 (stereo not drawn) | 175 to 178 °C
4 | COc1cc(C(F)(F)F)nc2c(N3CCC4(CC3)OCCO4)ccc(F)c12 | 101 to 103 °C
5 | COc1ccc(C(=O)c2ccccc2C=O)cc1 | 90 to 91 °C
6 | Cc1nc2c(C)cccn2c(=O)c1CCN1CCC(c2noc3cc(F)ccc23)CC1 | 200 °C
7 | N#CC(=C(Cl)c1ccc(Br)cc1)c1ccccc1 | 128 to 130 °C
8 | CC(=O)N(C)CC(c1ccc(Cl)cc1)c1ccc(Cl)cc1 | 103 to 104 °C
9 | Cc1ccc(Oc2ccc(C(F)(F)F)cc2Cl)cc1C(=O)O | 113 °C
10 | COc1ccc(C=Cc2c(Cl)cncc2Cl)c2c1OCC2C (stereo not drawn) | 117 to 118 °C
11 | COc1ccc(-n2nc(Sc3ccc([N+](=O)[O-])cc3)c(C)c(C#N)c2=O)cc1 | 258 to 260 °C
12 | COc1ccc(-c2cc3c(O)ncnc3[nH]2)cc1 | > 300 °C
13 | COC(=O)C(Oc1ccc(C(C)(C)C)cc1Cl)c1ccc(Oc2ccc(Cl)cc2)cc1 (stereo not drawn) | 85.5 to 88 °C
14 | N#Cc1c(N2CCc3ccccc3CC2)nc(CCO)[nH]c1=O | 184 to 188 °C
15 | Cn1nc(C(=O)OCC23CCCN(CC2)C3)c2ccccc21 (stereo not drawn) | 93 to 95 °C
16 | COc1cccc2c3c(c(=O)[nH]c12)CCCN3c1ccccc1C | 203 to 205 °C
17 | CC1=C(C#N)C(=C(C#N)C#N)OC1(C)c1ccc(Cl)cc1Cl (stereo not drawn) | 239 to 240 °C
18 | CCOC(=O)C1(O)C(=O)N2CCOc3cc(Cl)cc1c32 (stereo not drawn) | 186 to 187 °C

Row | SMILES | melting point
19 | NC(=O)c1cccc2c1C1(COc3cc4c(cc31)OCCO4)CN2Cc1ccccn1 (stereo not drawn) | 214 to 215 °C
20 | CCCc1nc2c(N)nc3cc(F)ccc3c2s1 | 192 to 194 °C
21 | Cc1c(C(=O)c2ccc(Br)c3ccccc23)c2cccc(C(F)(F)F)c2n1CCN1CCOCC1 | 160 °C
22 | Cc1cc2c(Cl)c([N+](=O)[O-])cnc2s1 | 96 to 98 °C
23 | Cc1nc2cc(OCCCCl)ccc2s1 | 63 to 65 °C
24 | COC(=O)c1c(C(F)F)nc(C(F)(F)F)c(-n2cccc2)c1C1CCC1 | 70 to 71 °C
25 | Fc1ccc(C2OC3(CCN(Cc4ccccc4)CC3)N3CCCCC23)cc1 (stereo not drawn) | 158 to 159 °C
26 | COc1ccc(C(=O)Oc2ccccc2)c(O)c1 | 61.5 to 62.5 °C
27 | ON=C1CCCCC1=Cc1ccccc1 | 114 to 115 °C
28 | COc1ccc2c(c1)CCC(N(C)c1ccc(O)cc1)C2 (stereo not drawn) | 79 to 82 °C
29 | Cc1nc(/C=C/c2cccc(Cl)c2F)no1 | 95 to 98 °C
30 | COc1cc(COc2nn(C)cc2C=O)ccc1OCc1nc(-c2ccco2)oc1C | 155 to 156 °C
31 | CNc1sccc1C(=O)c1ccccc1F | 184 to 186 °C
32 | COc1ccc2cc3c(Nc4ccc(Cl)cc4Cl)c(C#N)cnc3cc2c1 | > 260 °C
33 | CS(=O)(=O)c1ccc(-c2cc(C#N)sc2-c2ccc(F)cc2)cc1 | 139 to 140 °C
34 | O=C(c1ccc2cnccc2n1)N1CCc2ccccc2C1 | 98 to 100 °C
35 | COCC1OC(n2cnc3c(NCc4cccc(I)c4)nc(Cl)nc32)C(O)C1O (stereo not drawn) | 84 to 86 °C
36 | CC(C)C1(n2cccn2)CN(C(=O)O)N=C1c1ccc(F)cc1 (stereo not drawn) | 125 °C

More lines, now with the values ahead:

Row | melting point | SMILES
37 | 83 to 85 °C | Cc1cc(OCc2ccccc2)cc(OCCCC(C)C)c1C(=O)O
38 | 120 °C | CNC(=O)NCc1cncn1C1c2ccccc2CCC1(C)C (stereo not drawn)
39 | 240 to 242 °C | Cc1cccc(NC(=O)Nc2cccc3c2C2CC(O)CCN2C3=O)n1 (stereo not drawn)
40 | 112 °C | CCCCCCCCCCCCCCCCNc1ccc(C(=O)OCC(O)CO)cc1 (stereo not drawn)
41 | 106 to 108 °C | CCC1(CC(=O)O)OCCc2nc(-c3ccccc3)sc21 (stereo not drawn)
42 | 122 to 124 °C | CCc1cc(-c2[nH]c3ccc(OC)cc3c2C)cc(CC)c1O
43 | 93 to 94 °C | CC(C)CC1(CCCCCl)C(=O)Nc2c(Cl)cc(Cl)cc21 (stereo not drawn)
44 | 204 to 206 °C | CC(=O)NC(=Cc1c[nH]c2cc(C)ccc12)C(=O)O
45 | 98 to 99 °C | C=CCOc1ccc(C(=O)C=Cc2cccc(OC)c2OC)cc1
46 | 120 to 124 °C | CC(=O)N1CCC(C(=O)N[C@@H](CC(C)C)C(=O)N[C@@H](C(C)C)[C@@H](O)c2c(-c3ccccc3)c2=O)CC1
47 | 89 to 91 °C | CCCCc1nnc(SCC2CCCCC2)n1Cc1ccc(-c2ccccc2-c2nnn[nH]2)cc1
48 | 96 to 98 °C | O=C(Cc1ccc(Cc2ccc(F)cc2)o1)C(=O)c1ccc[nH]1
49 | 244 °C | CCCCCCCCCCCCCCCCCC(=O)NN(C(=O)CCCCCCCCCCCCCCCCC)C(=O)CCCCC(=O)NN
50 | 141 to 143 °C | CCc1n[nH]c(CC)c1Cc1cc(C#N)cc(C#N)c1
51 | 194 °C | CCOC(=O)N1CCC(=C2c3ccsc3C=Cn3ccnc32)CC1
52 | 119 to 121 °C | NS(=O)(=O)c1cc(C(=O)O)cc([N+](=O)[O-])c1-c1ccccc1
53 | 101 to 103 °C | O=C(CC(=O)c1ccc(C(F)(F)F)cc1[N+](=O)[O-])c1ccccc1
54 | 53 to 55 °C | COc1cc(C=O)ccc1OCCCCl
55 | 219 to 220 °C | CNC(=O)c1c(NC(=O)c2cc(C(F)(F)F)nn2-c2ncccc2Cl)ccc2cccnc12

Row | melting point | SMILES
56 | 96 to 98 °C | CCOCCn1c(C(=O)C2CCN(C(=O)OC(C)(C)C)CC2)nc2ccccc21
57 | 84 °C | CCCCCC1COc2cc(CCC3=Cc4cc(F)cc(F)c4OC3)c(F)cc2C1 (stereo not drawn)
58 | 233 to 234 °C | CCOc1ccc(-c2nc(-c3cc(C(=O)O)c(O)cc3O)cs2)cc1OCC
59 | 119 to 121 °C | CC(=O)Nc1ccc(C(=O)NC(C)(C)C)cc1
60 | 79 to 81 °C | COc1ccc2cc([C@H](C)C(=O)OCC(=O)N(C)CC(=O)NCCO[N+](=O)[O-])ccc2c1
61 | 84.5 to 86 °C | CCCCCC(=O)CCC1C(=O)NC(=O)N1CCCCCCC(=O)O (stereo not drawn)
62 | 126 to 127 °C | CC(C)(C)OC(=O)NCCNC(=O)c1cc(Cl)cc(Cl)n1
63 | 193 to 196 °C | COc1cccc([C@H]2O[C@H](CC(=O)Nc3ccc4oc(C(=O)O)c(OCC(=O)O)c4c3)C(=O)N(CC(C)(C)CO)c3ccc(Cl)cc32)c1OC
64 | 38 to 40 °C | COc1ccc(C(=O)CC(C)C)cc1OCCCO
65 | 94 to 95 °C | CCOC(=O)N1c2cc(OC)c(OC)cc2C(=O)CC1C (stereo not drawn)
66 | 143 to 144 °C | COc1ccc(C#CCSc2ccc(OCC(=O)O)c(C)c2)cc1
67 | 234 to 235 °C | COc1ccc(C(=O)Nc2ccc(C(C)(C)C(N)=O)cc2)cc1
68 | 127 to 129 °C | CCOC(=O)CCc1cc(Cl)ccc1C(=O)CCCNC(N)=O
69 | 121 to 122 °C | CC(C)(C)OC(=O)NCc1ccc(OCCC2Oc3ccccc3N(Cc3ccc(Cl)cc3)C2=O)cc1 (stereo not drawn)
70 | 23.3 °C | CCCCc1ccc(-c2ccc(OC)cc2F)nc1
71 | 231 °C | CCOc1ccc2c(c1)n(C13CC4CC(CC(C4)C1)C3)c(=O)n2S(=O)(=O)c1ccc([N+](=O)[O-])cc1OC
72 | 120 to 124 °C | COC(=O)CCCc1cc2cc(Cl)ccc2n1S(=O)(=O)c1cccc2cccnc12
73 | 120 to 121 °C | CCOC(=O)c1cn(Cc2cccnc2)nc1OCc1cccnc1
